Experimental data reported in the NIST ThermoML archive (doi:10.1016/j.jct.2013.07.008).

Tests used:
[1] = wn = mass fraction of the nth substance listed; details: for surface tension liquid-gas: Maximal bubble pressure; for mass density: 101 kPa, Liquid, Buoyancy - hydrostatic balance
[2] = refractive index (Na D-line) (dimensionless); wn = mass fraction of the nth substance listed; details: 101 kPa, Liquid, Standard Abbe refractometry

CC(O)C(=O)[O-].CCn1cc[n+](C)c1 [1-ethyl-3-methylimidazolium lactate] + O
Details	mass density, [1] [kg/m3]	refractive index, [2]	surface tension liquid-gas, [1] [mN/m]
288.15 K, w2 = 0.0082	1197.3	1.5019	50.1
288.15 K, w2 = 0.0104	1198.4	1.5017	50.3
288.15 K, w2 = 0.0121	1199.4	1.5016	50.4
288.15 K, w2 = 0.0158	1201.3	1.5013	50.7
288.15 K, w2 = 0.0205	1203.8	1.5009	51
293.15 K, w2 = 0.0082	1194.1	1.5006	49.8
293.15 K, w2 = 0.0104	1195.2	1.5004	50
293.15 K, w2 = 0.0121	1196.1	1.5002	50.1
293.15 K, w2 = 0.0158	1198.1	1.4999	50.4
293.15 K, w2 = 0.0205	1200.5	1.4994	50.7
303.15 K, w2 = 0.0082	1187.6	1.498	49.1
303.15 K, w2 = 0.0104	1188.8	1.4978	49.3
303.15 K, w2 = 0.0121	1189.7	1.4977	49.4
303.15 K, w2 = 0.0158	1191.5	1.4974	49.7
303.15 K, w2 = 0.0205	1194	1.497	50.1
308.15 K, w2 = 0.0082	1184.3	1.4969	48.7
308.15 K, w2 = 0.0104	1185.5	1.4967	48.9
308.15 K, w2 = 0.0121	1186.4	1.4965	49
308.15 K, w2 = 0.0158	1188.3	1.4962	49.3
308.15 K, w2 = 0.0205	1190.7	1.4957	49.7
313.15 K, w2 = 0.0082	1180.9	1.4955	48.4
313.15 K, w2 = 0.0104	1182	1.4953	48.6
313.15 K, w2 = 0.0121	1182.9	1.4952	48.7
313.15 K, w2 = 0.0158	1184.9	1.4949	49
313.15 K, w2 = 0.0205	1187.5	1.4946	49.4
318.15 K, w2 = 0.0082	1177.6	1.4943	48.1
318.15 K, w2 = 0.0104	1178.8	1.4941	48.3
318.15 K, w2 = 0.0121	1179.7	1.494	48.4
318.15 K, w2 = 0.0158	1181.5	1.4937	48.7
318.15 K, w2 = 0.0205	1184	1.4933	49.1
323.15 K, w2 = 0.0082	1174.5	1.4931	47.7
323.15 K, w2 = 0.0104	1175.6	1.493	47.9
323.15 K, w2 = 0.0121	1176.4	1.4929	48
323.15 K, w2 = 0.0158	1178.2	1.4927	48.3
323.15 K, w2 = 0.0205	1180.6	1.4924	48.7
328.15 K, w2 = 0.0082	1171.3	1.4919	47.3
328.15 K, w2 = 0.0104	1172.5	1.4917	47.5
328.15 K, w2 = 0.0121	1173.4	1.4915	47.6
328.15 K, w2 = 0.0158	1175.3	1.4912	47.9
328.15 K, w2 = 0.0205	1177.7	1.4908	48.3
333.15 K, w2 = 0.0082	1168	1.4906	47
333.15 K, w2 = 0.0104	1169.1	1.4904	47.2
333.15 K, w2 = 0.0121	1170	1.4903	47.3
333.15 K, w2 = 0.0158	1172	1.49	47.6
333.15 K, w2 = 0.0205	1174.5	1.4896	48

CC(O)C(=O)[O-].CCCCCn1cc[n+](C)c1 [1-pentyl-3-methylimidazolium lactate] + O
Details	mass density, [1] [kg/m3]	refractive index, [2]	surface tension liquid-gas, [1] [mN/m]
288.15 K, w2 = 0.0081	–	1.4933	–
288.15 K, w2 = 0.0086	1116.6	–	43.7
288.15 K, w2 = 0.0102	–	1.4931	–
288.15 K, w2 = 0.0106	1117.4	–	43.8
288.15 K, w2 = 0.0129	1118.6	1.4929	44
288.15 K, w2 = 0.0153	–	1.4927	–
288.15 K, w2 = 0.0163	1120.3	–	44.3
288.15 K, w2 = 0.0199	–	1.4923	–
288.15 K, w2 = 0.021	1122.4	–	44.6
293.15 K, w2 = 0.0081	–	1.492	–
293.15 K, w2 = 0.0086	1113.1	–	43.3
293.15 K, w2 = 0.0102	–	1.4918	–
293.15 K, w2 = 0.0106	1113.9	–	43.4
293.15 K, w2 = 0.0129	1115.2	1.4916	43.6
293.15 K, w2 = 0.0153	–	1.4913	–
293.15 K, w2 = 0.0163	1116.8	–	43.9
293.15 K, w2 = 0.0199	–	1.4909	–
293.15 K, w2 = 0.021	1119	–	44.2
303.15 K, w2 = 0.0081	–	1.4894	–
303.15 K, w2 = 0.0086	1106.8	–	42.6
303.15 K, w2 = 0.0102	–	1.4892	–
303.15 K, w2 = 0.0106	1107.6	–	42.7
303.15 K, w2 = 0.0129	1108.8	1.489	42.9
303.15 K, w2 = 0.0153	–	1.4888	–
303.15 K, w2 = 0.0163	1110.5	–	43.2
303.15 K, w2 = 0.0199	–	1.4884	–
303.15 K, w2 = 0.021	1112.7	–	43.5
308.15 K, w2 = 0.0081	–	1.4883	–
308.15 K, w2 = 0.0086	1103.6	–	42.2
308.15 K, w2 = 0.0102	–	1.4881	–
308.15 K, w2 = 0.0106	1104.3	–	42.3
308.15 K, w2 = 0.0129	1105.6	1.4879	42.5
308.15 K, w2 = 0.0153	–	1.4876	–
308.15 K, w2 = 0.0163	1107.3	–	42.8
308.15 K, w2 = 0.0199	–	1.4872	–
308.15 K, w2 = 0.021	1109.5	–	43.2
313.15 K, w2 = 0.0081	–	1.4869	–
313.15 K, w2 = 0.0086	1099.9	–	41.9
313.15 K, w2 = 0.0102	–	1.4867	–
313.15 K, w2 = 0.0106	1100.7	–	42
313.15 K, w2 = 0.0129	1102.1	1.4865	42.2
313.15 K, w2 = 0.0153	–	1.4863	–
313.15 K, w2 = 0.0163	1104	–	42.5
313.15 K, w2 = 0.0199	–	1.486	–
313.15 K, w2 = 0.021	1106.4	–	42.9
318.15 K, w2 = 0.0081	–	1.4857	–
318.15 K, w2 = 0.0086	1097.1	–	41.6
318.15 K, w2 = 0.0102	–	1.4855	–
318.15 K, w2 = 0.0106	1097.8	–	41.8
318.15 K, w2 = 0.0129	1099.1	1.4853	41.9
318.15 K, w2 = 0.0153	–	1.4851	–
318.15 K, w2 = 0.0163	1100.8	–	42.2
318.15 K, w2 = 0.0199	–	1.4847	–
318.15 K, w2 = 0.021	1103	–	42.6
323.15 K, w2 = 0.0081	–	1.4845	–
323.15 K, w2 = 0.0086	1093.9	–	41.2
323.15 K, w2 = 0.0102	–	1.4844	–
323.15 K, w2 = 0.0106	1094.6	–	41.4
323.15 K, w2 = 0.0129	1095.8	1.4842	41.5
323.15 K, w2 = 0.0153	–	1.4841	–
323.15 K, w2 = 0.0163	1097.5	–	41.8
323.15 K, w2 = 0.0199	–	1.4838	–
323.15 K, w2 = 0.021	1099.6	–	42.2
328.15 K, w2 = 0.0081	–	1.4833	–
328.15 K, w2 = 0.0086	1090.5	–	40.8
328.15 K, w2 = 0.0102	–	1.4831	–
328.15 K, w2 = 0.0106	1091.2	–	41
328.15 K, w2 = 0.0129	1092.5	1.4829	41.1
328.15 K, w2 = 0.0153	–	1.4826	–
328.15 K, w2 = 0.0163	1094.1	–	41.4
328.15 K, w2 = 0.0199	–	1.4822	–
328.15 K, w2 = 0.021	1096.4	–	41.8
333.15 K, w2 = 0.0081	–	1.482	–
333.15 K, w2 = 0.0086	1087.4	–	40.5
333.15 K, w2 = 0.0102	–	1.4818	–
333.15 K, w2 = 0.0106	1088.1	–	40.7
333.15 K, w2 = 0.0129	1089.3	1.4816	40.8
333.15 K, w2 = 0.0153	–	1.4814	–
333.15 K, w2 = 0.0163	1091	–	41.1
333.15 K, w2 = 0.0199	–	1.481	–
333.15 K, w2 = 0.021	1093.2	–	41.5
